In ChEMBL document CHEMBL3885861, “Open TG-GATES”:

Organism: Rattus norvegicus
Assay: Open TG-GATES - Regimen: Daily Repeat
Type: toxicity, organism-based, Sprague-Dawley
Design: regimen Daily Repeat, gender Male, age 6 weeks
Conditions: in vivo, po, route gavage; for gamma-GTP / ALP / ALT / AST / CRE / Ca / Cl / DBIL / GLC / IP / K / LDH / Na / PL / RALB / TBIL / TC / TG / TP / BUN: tissue Plasma; for KIDNEY_L / KIDNEY_R / KIDNEY_TOTAL: tissue Kidney
[1] = 75 mg/kg, 72 h, dose level Middle, time 3 day
[2] = 75 mg/kg, 72 h, tissue Blood, dose level Middle, time 3 day
[3] = 75 mg/kg, […], dose level Middle, time 7 day
[4] = 75 mg/kg, […], dose level Middle, time 14 day
[5] = 75 mg/kg, […], dose level Middle, time 28 day
[6] = 75 mg/kg, […], tissue Blood, dose level Middle, time 7 day
[7] = 75 mg/kg, […], tissue Blood, dose level Middle, time 14 day
[8] = 75 mg/kg, […], tissue Blood, dose level Middle, time 28 day

SMILES: O=C1CN(/N=C/c2ccc(-c3ccc([N+](=O)[O-])cc3)o2)C(O)=N1 [DANTROLENE]
- gamma-GTP (25 mg/kg, […], dose level Low, time 28 day): 1.6 IU/L
- TERMINAL_BW [1]: 213.7 g
- APTT [2]: 19.1 s
- Bas [2]: 0%
- Eos [2]: 1%
- Fbg [2]: 223.4 mg/dL
- Hb [2]: 14.1 g/dL
- Lym [2]: 81.8%
- MCH [2]: 21.6 pg
- MCHC [2]: 33.8%
- MCV [2]: 63.8 fL
- Mono [2]: 7%
- Plat [2]: 126.6 x10_4/uL
- RBC [2]: 656.2 x10_4/ul
- Ret [2]: 2.9%
- WBC [2]: 97.1 x10_2/uL
- KIDNEY_L [1]: 1 g
- KIDNEY_R [1]: 1 g
- KIDNEY_TOTAL [1]: 2 g
- ALP [1]: 615 IU/L
- ALT [1]: 30.2 IU/L
- AST [1]: 63.2 IU/L
- CRE [1]: 0.6 mg/dL
- Ca [1]: 10.8 mg/dL
- Cl [1]: 105.2 meq/L
- DBIL [1]: 0.01 mg/dL
- GLC [1]: 188 mg/dL
- IP [1]: 6 mg/dL
- K [1]: 4.2 meq/L
- LDH [1]: 107.2 IU/L
- Na [1]: 140.6 meq/L
- PL [1]: 142 mg/dL
- RALB [1]: 3.9 g/dL
- TBIL [1]: 0.3 mg/dL
- TC [1]: 75.4 mg/dL
- TG [1]: 52.4 mg/dL
- TP [1]: 5.8 g/dL
- gamma-GTP [1]: 1 IU/L
- TERMINAL_BW [3]: 242.5 g
- TERMINAL_BW [4]: 289.9 g
- TERMINAL_BW [5]: 346.6 g
- APTT [6]: 17.1 s
- Bas [6]: 0%
- Eos [6]: 1%
- Fbg [6]: 207.4 mg/dL
- Hb [6]: 14.3 g/dL
- Lym [6]: 77.8%
- MCH [6]: 21.1 pg
- MCHC [6]: 33.5%
- MCV [6]: 63 fL
- Mono [6]: 8.4%
- RBC [6]: 679 x10_4/ul
- Ret [6]: 5.6%
- WBC [6]: 121.9 x10_2/uL
- APTT [7]: 16.7 s
- Bas [7]: 0%
- Eos [7]: 0.6%
- Fbg [7]: 222.4 mg/dL
- Hb [7]: 15.3 g/dL
- Lym [7]: 83.6%
- MCH [7]: 21 pg
- MCHC [7]: 34%
- MCV [7]: 61.8 fL
- Mono [7]: 5.8%
- Plat [7]: 114.6 x10_4/uL
- RBC [7]: 727.2 x10_4/ul
- Ret [7]: 4.7%
- WBC [7]: 127.2 x10_2/uL
- APTT [8]: 16.8 s
- Bas [8]: 0%
- Eos [8]: 1.2%
- Fbg [8]: 231.8 mg/dL
- Hb [8]: 15.7 g/dL
- Ht [8]: 46.3%
- Lym [8]: 79.4%
- MCH [8]: 19.5 pg
- MCHC [8]: 33.9%
- MCV [8]: 57.5 fL
- Mono [8]: 5.4%
- Plat [8]: 118.7 x10_4/uL
- RBC [8]: 806.6 x10_4/ul
- Ret [8]: 4.4%
- KIDNEY_L [3]: 1.1 g
- KIDNEY_R [3]: 1.1 g
- KIDNEY_TOTAL [3]: 2.1 g
- KIDNEY_L [4]: 1.2 g
- KIDNEY_R [4]: 1.2 g
- KIDNEY_TOTAL [4]: 2.4 g
- KIDNEY_L [5]: 1.4 g
- KIDNEY_R [5]: 1.4 g
- KIDNEY_TOTAL [5]: 2.8 g
- ALP [3]: 857.6 IU/L
- ALT [3]: 34 IU/L
- AST [3]: 61.2 IU/L
- BUN [3]: 18.2 mg/dL
- CRE [3]: 0.5 mg/dL
- Ca [3]: 10.8 mg/dL
- Cl [3]: 108.6 meq/L
- DBIL [3]: 0.014 mg/dL
- GLC [3]: 185.6 mg/dL
- IP [3]: 6.9 mg/dL
- K [3]: 4.8 meq/L
- LDH [3]: 107.4 IU/L
- Na [3]: 139.6 meq/L
- PL [3]: 139.4 mg/dL
- RALB [3]: 3.8 g/dL
- TBIL [3]: 0.4 mg/dL
- TC [3]: 65.6 mg/dL
- TG [3]: 74.4 mg/dL
- TP [3]: 5.7 g/dL
- gamma-GTP [3]: 1.4 IU/L
- ALP [4]: 636.8 IU/L
- ALT [4]: 30.6 IU/L
- AST [4]: 57.4 IU/L
- BUN [4]: 19.6 mg/dL
- CRE [4]: 0.6 mg/dL
- Ca [4]: 10.8 mg/dL
- Cl [4]: 105.4 meq/L
- DBIL [4]: 0.016 mg/dL
- GLC [4]: 186.8 mg/dL
- IP [4]: 6.5 mg/dL
- K [4]: 3.9 meq/L
- LDH [4]: 101.8 IU/L
- Na [4]: 141 meq/L
- PL [4]: 160.6 mg/dL
- RALB [4]: 3.8 g/dL
- TBIL [4]: 0.4 mg/dL
- TC [4]: 66.4 mg/dL
- TG [4]: 130.4 mg/dL
- TP [4]: 5.9 g/dL
- gamma-GTP [4]: 0.6 IU/L
- ALP [5]: 509.8 IU/L
- ALT [5]: 31.8 IU/L
- AST [5]: 53 IU/L
- BUN [5]: 18.8 mg/dL
- CRE [5]: 0.5 mg/dL
- Ca [5]: 10.7 mg/dL
- Cl [5]: 106.4 meq/L
- DBIL [5]: 0.05 mg/dL
- GLC [5]: 179.8 mg/dL
- IP [5]: 6.2 mg/dL
- K [5]: 4.2 meq/L
- LDH [5]: 122.4 IU/L
- Na [5]: 140 meq/L
- PL [5]: 169.6 mg/dL
- RALB [5]: 4 g/dL
- TBIL [5]: 0.2 mg/dL
- TC [5]: 72.4 mg/dL
- TG [5]: 139.8 mg/dL
- TP [5]: 6.2 g/dL
- gamma-GTP [5]: 1.2 IU/L
- TERMINAL_BW (250 mg/kg, 72 h, dose level High, time 3 day): 193.8 g
